Test [1] has as its system Acinetobacter baumannii ATCC 17978. Put plainly: Antimicrobial susceptibility testing, 90% growth inhibitory concentration (IC90) determination. In kind it is cell-based. The following applies: Acinetobacter baumannii ATCC17978, Iso-Sensitest broth, OD 600 nm over 16 h. The method, boiled down:
(§1)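 Twofold dilutions (e.g. 50 to 0.097 μM final) in Iso-Sensitest broth, inoculum ~5×10^(5) CFU/ml, incubated at 35+2 °C. OD600 read every 20 min over 16 h; IC90 taken from growth inhibition during logarithmic phase.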

In test [2] the test system is Acinetobacter baumannii ATCC17961. The description is as above. Format: cell-based. The note with it: 90% growth inhibitory concentration, Acinetobacter baumannii ATCC17961, Iso-Sensitest broth, OD 600 nm over 16 h; read-out: ATCC17961 IC90. The method, boiled down:
as §1

Take `CCc1cc(Nc2nccn3c(-c4ccc(OC)c(F)c4F)cnc23)ccc1C(=O)NC1(CNC(=N)N)CC1` [Example 18, N-[1-(carbamimidamidomethyl)cyclopropyl]-4-[[3-(2,3-difluoro-4-methoxyphenyl)imidazo[1,2-a]pyrazin-8-yl]amino]-2-ethylbenzamide]: the IC90 in test [1] worked out at 84 nM; in test [2], 83 nM.
For `CCc1cc(Nc2nccn3c(-c4ccc(OC)c(F)c4F)cnc23)ccc1C(=O)NC1(CNC(C)=N)CC1` [Example 19, 4-[[3-(2,3-difluoro-4-methoxyphenyl)imidazo[1,2-a]pyrazin-8-yl]amino]-N-[1-[(ethanimidoylamino)methyl]cyclopropyl]-2-ethylbenzamide], in that order: 150 nM and 154 nM.
For `COc1ccc(-c2cnc3c(Nc4ccc(C(=O)N[C@H]5CC[C@@H](N)CC5)c(C)c4)nccn23)c(F)c1F` [Example 31, N-(4-aminocyclohexyl)-4-[[3-(2,3-difluoro-4-methoxyphenyl)imidazo[1,2-a]pyrazin-8-yl]amino]-2-methylbenzamide], in that order: 53 nM and 53 nM.
For `COc1ccc(-c2cnc3c(Nc4ccc(C(=O)NC5CCN(C(=O)[C@@H]6C[C@@H](O)CN6)CC5)c(C)c4)nccn23)c(F)c1F` [Example 32, 4-[[3-(2,3-difluoro-4-methoxyphenyl)imidazo[1,2-a]pyrazin-8-yl]amino]-N-[1-[(2S,4R)-4-hydroxypyrroIidine-2-carbonyl]piperidin-4-yl]-2-methylbenzamide], in that order: 66 nM and 66 nM.
On to `COc1ccc(-c2cnc3c(Nc4ccc(C(=O)N[C@H]5CC[C@@H](NC(=C(C)C)N(C)C)CC5)c(C)c4)nccn23)c(F)c1F` [Example 33, 4-[[3-(2,3-difluoro-4-methoxyphenyl)imidazo[1,2-a]pyrazin-8-yl]amino]-N-[4-[[1-(dimethylamino)-2-methylprop-1-enyl]amino]cyclohexyl]-2-methylbenzamide;formic acid], for which the IC90 in test [1] and in test [2] was 75 nM throughout.
With `COc1ccc(-c2cnc3c(Nc4ccc(C(=O)N[C@H]5CC[C@@H](NC(=O)[C@@H]6C[C@@H](O)CN6)CC5)c(C)c4)nccn23)c(F)c1F` [Example 34, (2S,4R)-N-[4-[[4-[[3-(2,3-difluoro-4-methoxyphenyl)imidazo[1,2-a]pyrazin-8-yl]amino]-2-methylbenzoyl]amino]cyclohexyl]-4-hydroxypyrrolidine-2-carboxamide], the IC90 in test [1] and in test [2] was 54 nM in each case.
As to `COc1ccc(-c2cnc3c(Nc4ccc(C(=O)N[C@H]5C[C@@H](N)C5)c(C)c4)nccn23)c(F)c1F` [Example 35, N-(3-aminocyclobutyl)-4-[[3-(2,3-difluoro-4-methoxyphenyl)imidazo[1,2-a]pyrazin-8-yl]amino]-2-methylbenzamide], the figures for the IC90 in test [1] and in test [2] were 63 nM and 62 nM, respectively.
Taken in the same sequence, the figures for `CCc1cc(Nc2nccn3c(-c4ccc(OC)c(F)c4F)cnc23)ccc1C(=O)N[C@H]1C[C@@H](NC(=O)[C@@H](N)CCCNC(=N)N)C1` [Example 37, N-[3-[[(2S)-2-amino-5-carbamimidamidopentanoyl]amino]cyclobutyl]-4-[[3-(2,3-difluoro-4-methoxyphenyl)imidazo[1,2-a]pyrazin-8-yl]amino]-2-ethylbenzamide;2,2,2-trifluoroacetic acid] were 99 nM and 99 nM.
With `COc1ccc(-c2cnc3c(Nc4ccc(C(=O)N[C@@H]5CCNC5)c(C)c4)nccn23)c(F)c1F` [Example 38, 4-[[3-(2,3-difluoro-4-methoxyphenyl)imidazo[1,2-a]pyrazin-8-yl]amino]-2-methyl-N-[(3R)-pyrrolidin-3-yl]benzamide], the IC90 in test [1] turned out to be 160 nM; in test [2], 162 nM.
For the compound `CCc1cc(Nc2nccn3c(-c4ccc(OC)c(F)c4F)cnc23)ccc1C(=O)NC1CCC1N` (stereo not shown) [Example 39, N-(2-aminocyclobutyl)-4-[[3-(2,3-difluoro-4-methoxyphenyl)imidazo[1,2-a]pyrazin-8-yl]amino]-2-ethylbenzamide], the 90% effect concentration (IC90) is 290 nM in test [1] and 288 nM in test [2].
For `COc1ccc(-c2cnc3c(Nc4ccc(C(=O)N(C)CCC(=O)N5CCNCC5)c(C)c4)nccn23)cc1F` [Reference Example 10, 4-[[3-(3-fluoro-4-methoxy-phenyl)imidazo[1,2-a]pyrazin-8-yl]amino]-N,2-dimethyl-N-(3-oxo-3-piperazin-1-yl-propyl)benzamide], in that order: 290 nM and 290 nM.

In general, IC90 refers to the point of the concentration-response curve where the effect stands at 90%.
